In patent US20260256922A1, “PRODRUGS USEFUL FOR REDUCING ANTHRACYCLINE CARDIOTOXICITY” (WAKE FOREST UNIVERSITY HEALTH SCIENCES, priority 2022, published 2026):

Tested on: caspase-3
Experiment: Caspase-3 cleavage immunoblot in H9C2 cells
Conditions: 24 h
Procedure: FIG. 6. […] H9C2 cells in culture were treated for 24 hr with c1, c2, DOX or vehicle (DMSO), then harvested into lysis buffer and immunoblotted for caspase-3. Data analyzed by ImageJ were used to assess the percent of the two bands present as the lower band.
We next evaluated apoptotic signaling through caspase-3 cleavage at 24 h to compare the experimental compounds.
To evaluate levels of caspase cleavage (using an antibody recognizing both cleaved and uncleaved, Cell Signaling, cat #9662), Nrf2 (antibody from Thermo Fisher, cat #PA5-27882), and HO-1 (antibody from Proteintech, cat #10701-1-AP), H9C2 cells were plated at a density of 450,000 per well in a 24-well plate, then treated 24 h later with 10 or 20 µM DOX and incubated another 24 h before harvesting. For some samples, 100 mM hydroxocobalamin (HO-Cbl) was added 5 min before drug treatment. Cells were harvested by removing media (and recovering any non-adherent cells by centrifugation for 5 min at 10,600×g, discarding the supernatant), and combining that with the 120 μL of lysis buffer added to each well. Lysis buffer [50 mM Tris-HCl at pH 8.0, with 100 mM NaCl, 100 µM diethylene triamine pentaacetic acid (DTPA), 20 mM β-glycerophosphate, 0.1% SDS, 0.5% Na Desoxycholate, and 0.5% Triton-X-100] was prepared by freshly adding protease and phosphatase inhibitors before use (1 mM PMSF, 10 μg/mL aprotinin, 1 mM Na3VO4, 10 mM NaF and 10 μg/mL leupeptin). Samples were further incubated on ice for 30 min, then centrifuged at high speed (20,800×g for 10 min) to remove cell debris, and supernatants were mixed with 5×SDS protein sample buffer for Western blot analysis following resolution of 40 μg per sample on 10% SDS-polyacrylamide gels. Protein concentrations of supernatants were determined using a BCA assay (Pierce). Antibodies were used at dilutions of 1:1000 (for HO-1 and caspase-3) or 1:3000 (for Nrf2).

## COc1cccc2c1C(=O)c1c(O)c3c(c(O)c1C2=O)C[C@@](O)(C(=O)CO)C[C@@H]3O[C@H]1C[C@H](NC(=S)OCc2ccc(B3OC(C)(C)C(C)(C)O3)cc2)[C@H](O)[C@H](C)O1 [c1]
H9C2, 10 μM drug, 100 mM hydroxocobalamin added 5 min prior
  caspase-3 cleavage with H2S scavenger hydroxocobalamin: much more cleavage of caspase-3 than in its absence
H9C2, 10 or 20 μM
  caspase-3 cleavage: neither c1 nor c2 at either 10 or 20 UM caused notable caspase-3 cleavage
